# Measurements as given in patent US9029076B2, “Tissue preservation and fixation method” (George Mason Research Foundation, Inc., priority 2006, dated 2015).
# Legend:
# Assay in all cases: RPA phosphoprotein level after 24 h storage of tumor needle samples in preservatives
# Conditions in all cases: 24 h in preservative at 4° C., relative normalized RPA intensity
# p38 T180/182 = tested on: p38 T180/182
# Protocol: (§1) The RPA format, originated by the present inventors and collaborators (see, e.g., Paweletz et al. (2001) Oncogene 20, 1981-1989), immobilizes an individual test sample in a miniature dilution curve such that an array contains hundreds of different patient samples, treatments, or time points. In the RPA format, each array is incubated with one detection protein (e.g. anti-peptide antibody), and a single analyte endpoint is measured and directly compared across multiple samples. Briefly, the lysates are printed on glass backed nitrocellulose array slides (FAST Slides Whatman, Florham Park, N.J. or ONCYTE slides Grace BioLabs, Bend, Oreg.) using a robotic array printing device (GMS 417 arrayer (Affymetrix, Santa Clara, Calif. or Aushon 2470, Aushon Biosystems, Burlington, Mass. equipped with 125-500 μm pins). Each lysate is printed in a dilution curve representing neat, 1:2, 1:4, 1:8, 1:16 and negative control dilutions. The slides are stored with desiccant (Drierite, W. A. Hammond, Xenia, Ohio) at −20° C. prior to immunostaining.
# (§2) Immunostaining is performed on an automated slide stainer per manufacturer's instructions (Autostainer CSA kit, Dako, Carpinteria, Calif.). Each slide is incubated with a single primary antibody at room temperature for 30 minutes. Polyclonal primary antibodies can be, e.g.: GSK3α/β Tyr279/216 (Invitrogen-Biosource, Carlsbad, Calif.), BCL-2, HIF-1α (BD, Franklin Lakes, N.J.), 4EBP1, FKHR ser256, eIF4E, eIF4E ser209, eIF4G, eIF4G ser1108, IGFR-β, IRS-1, IRS-2, IRS-1 ser612, SGK, Bak, Bax, BAD, BAD ser112, BAD ser136, BAD ser155, B-Raf, mTOR, mTOR ser2448, p70S6 Thr389, p70S6 kinase, p70S6 ser371, S6 kinase ser240/244, Akt, Akt ser473, Akt Thr308, 4EBP1 ser65, 4EBP1 ser70, and 4EBP1 Thr37/46 (Cell Signaling Technology, Danvers, Mass.). A negative control slide is incubated with antibody diluent. Secondary antibody can be goat anti-rabbit IgG H+L (1:5000) (Vector Labs, Burlingame, Calif.).
# (§3) Each array is scanned, spot intensity analyzed, data normalized, and a standardized, single data value can be generated for each sample on the array (Image Quant v5.2, GE Healthcare, Piscataway, N.J.) or MicroVigene v2.8, Vigene Tech, Billerica, Mass.). Spot intensity is integrated over a fixed area. Local area background intensity is calculated for each spot with the unprinted adjacent slide background. […] The Ward method for two-way hierarchical clustering can be performed using JMP v5.0 (SAS Institute, Cary N.C.). Wilcoxon two-sample rank sum test can be used to compare values between two groups. P values less than 0.05 are considered significant. When one cannot assume a normal distribution of the variables, non-parametric methods are used. Kaplan-Meier (log-rank) survival estimates for univariate survival analysis can be used.
# (§4) Briefly, tumor tissues from gastrinoma/liver, mesothelioma and parathyroid tumors were sampled by five needle passes and placed into the preservatives listed in Table 5. […] Immediate lysis and denaturation of the cellular proteins were accomplished by standard Pierce Tissue Protein Extraction Buffer (T-PER), with additional SDS, denaturing reagents, and detergents. The cell samples were stored 24 h in the listed preservatives at 4° C. and then the listed phosphoprotein endpoints were measured. […] Some values dropped to zero while others are markedly elevated compared to the freshly lysed cell baseline. […] They were unable to stabilize the phosphorylation state of key signal proteins over a storage period of 24 hours, which is a typical time delay for cell or tissue shipment. Numbers in the table are relative normalized intensity values using the RPA technology described herein.
# EGFR Y1148 = tested on: EGFR Y1148
# Protocol: as §1, §2, §3, §4
# AKT Thr308 = tested on: AKT Thr308
# Protocol: as §1, §2, §3, §4
# ERK T202/Y204 = tested on: ERK T202/Y204
# Protocol: as §1, §2, §3, §4
# IKappa-Ba ser32 = tested on: IKappa-Ba ser32
# Protocol: as §1, §2, §3, §4
# AKT ser473 = tested on: AKT ser473
# Protocol: as §1, §2, §3, §4
# CREB ser133 = tested on: CREB ser133
# Protocol: as §1, §2, §3, §4
# CC3 Asp175 = tested on: CC3 Asp175
# Protocol: as §1, §2, §3, §4
# IRS-1 ser612 = tested on: IRS-1 ser612
# Protocol: as §1, §2, §3, §4
# GSK3ab ser21/9 = tested on: GSK3ab ser21/9
# Protocol: as §1, §2, §3, §4
# [1] = Gastrinoma/liver tumor, Lysis Buffer = frozen immediately after lysis
# [2] = Parathyroid tumor, Lysis Buffer = frozen immediately after lysis
SMILES,p38 T180/182 Normalized data (p38 T180/182; [1]),p38 T180/182 Normalized data (p38 T180/182; Mesothelioma),p38 T180/182 Normalized data (p38 T180/182; [2]),EGFR Y1148 Normalized data (EGFR Y1148; [1]),EGFR Y1148 Normalized data (EGFR Y1148; Mesothelioma),EGFR Y1148 Normalized data (EGFR Y1148; [2]),AKT Thr308 Normalized data (AKT Thr308; [1]),AKT Thr308 Normalized data (AKT Thr308; Mesothelioma),AKT Thr308 Normalized data (AKT Thr308; [2]),ERK T202/Y204 Normalized data (ERK T202/Y204; [1]),ERK T202/Y204 Normalized data (ERK T202/Y204; Mesothelioma),ERK T202/Y204 Normalized data (ERK T202/Y204; [2]),IKappa-Ba ser32 Normalized data (IKappa-Ba ser32; [1]),IKappa-Ba ser32 Normalized data (IKappa-Ba ser32; Mesothelioma),IKappa-Ba ser32 Normalized data (IKappa-Ba ser32; [2]),AKT ser473 Normalized data (AKT ser473; [1]),AKT ser473 Normalized data (AKT ser473; Mesothelioma),AKT ser473 Normalized data (AKT ser473; [2]),CREBser133 Normalized data (CREB ser133; [1]),CREBser133 Normalized data (CREB ser133; Mesothelioma),other results
"[Cl-].[Na+] [0.9% saline, sodium chloride]",33.41,26.34,4.79,39.76,24.62,6.57,9.73,8.97,0.00,10.75,7.72,0.00,29.64,16.87,1.87,3.76,9.78,1.84,24.09,17.20,CREBser133 Normalized data (CREB ser133; [2]): 5.35; CC3 Asp175 Normalized data (CC3 Asp175; [1]): 14.57; CC3 Asp175 Normalized data (CC3 Asp175; Mesothelioma): 10.85; CC3 Asp175 Normalized data (CC3 Asp175; [2]): 5.46; IRS-1 ser612 Normalized data (IRS-1 ser612; [1]): 4.82; IRS-1 ser612 Normalized data (IRS-1 ser612; Mesothelioma): 2.34; IRS-1 ser612 Normalized data (IRS-1 ser612; [2]): 0.00; GSK3ab ser21/9 Normalized data (GSK3ab ser21/9; [1]): 12.25; GSK3ab ser21/9 Normalized data (GSK3ab ser21/9; Mesothelioma): 9.46; GSK3ab ser21/9 Normalized data (GSK3ab ser21/9; [2]): 0.00
"OC[C@H]1O[C@H](O[C@H]2O[C@H](CO)[C@@H](O)[C@H](O)[C@H]2O)[C@H](O)[C@@H](O)[C@@H]1O [15% trehalose, Trehalose]",36.95,7.39,30.53,95.78,21.03,26.55,19.93,0.95,5.38,17.01,0.00,9.34,32.99,13.29,24.12,0.00,7.86,0.26,55.11,10.01,CREBser133 Normalized data (CREB ser133; [2]): 21.50; CC3 Asp175 Normalized data (CC3 Asp175; [1]): 11.19; CC3 Asp175 Normalized data (CC3 Asp175; Mesothelioma): 6.82; CC3 Asp175 Normalized data (CC3 Asp175; [2]): 7.76; IRS-1 ser612 Normalized data (IRS-1 ser612; [1]): 25.51; IRS-1 ser612 Normalized data (IRS-1 ser612; Mesothelioma): 0.00; IRS-1 ser612 Normalized data (IRS-1 ser612; [2]): 0.05; GSK3ab ser21/9 Normalized data (GSK3ab ser21/9; [1]): 32.18; GSK3ab ser21/9 Normalized data (GSK3ab ser21/9; Mesothelioma): 7.80; GSK3ab ser21/9 Normalized data (GSK3ab ser21/9; [2]): 10.36
"OC[C@H]1O[C@@](CO)(O[C@H]2O[C@H](CO)[C@@H](O)[C@H](O)[C@H]2O)[C@@H](O)[C@@H]1O [30% sucrose, sucrose]",63.91,28.71,1.15,65.97,22.84,6.14,42.04,12.13,0.00,48.68,15.67,1.15,69.82,0.00,0.33,16.16,19.36,3.27,69.03,22.82,CREBser133 Normalized data (CREB ser133; [2]): 2.09; CC3 Asp175 Normalized data (CC3 Asp175; [1]): 61.02; CC3 Asp175 Normalized data (CC3 Asp175; Mesothelioma): 17.90; CC3 Asp175 Normalized data (CC3 Asp175; [2]): 2.23; IRS-1 ser612 Normalized data (IRS-1 ser612; [1]): 31.46; IRS-1 ser612 Normalized data (IRS-1 ser612; Mesothelioma): 1.84; IRS-1 ser612 Normalized data (IRS-1 ser612; [2]): 0.00; GSK3ab ser21/9 Normalized data (GSK3ab ser21/9; [1]): 37.27; GSK3ab ser21/9 Normalized data (GSK3ab ser21/9; Mesothelioma): 3.12; GSK3ab ser21/9 Normalized data (GSK3ab ser21/9; [2]): 0.00
CC(C)=O [Acetone],77.58,87.57,72.96,65.10,49.89,81.36,25.45,30.05,21.93,46.15,55.31,77.97,48.91,36.08,49.65,4.56,27.53,13.12,91.79,83.10,CREBser133 Normalized data (CREB ser133; [2]): 83.74; CC3 Asp175 Normalized data (CC3 Asp175; [1]): 38.23; CC3 Asp175 Normalized data (CC3 Asp175; Mesothelioma): 26.75; CC3 Asp175 Normalized data (CC3 Asp175; [2]): 29.46; IRS-1 ser612 Normalized data (IRS-1 ser612; [1]): 33.10; IRS-1 ser612 Normalized data (IRS-1 ser612; Mesothelioma): 10.72; IRS-1 ser612 Normalized data (IRS-1 ser612; [2]): 40.55; GSK3ab ser21/9 Normalized data (GSK3ab ser21/9; [1]): 35.47; GSK3ab ser21/9 Normalized data (GSK3ab ser21/9; Mesothelioma): 55.72; GSK3ab ser21/9 Normalized data (GSK3ab ser21/9; [2]): 123.00
